≈ marks a conversion by molar mass, not a printed value. Like-named read-outs stand apart in the source and are kept apart here.
How the values were obtained:
Assay in all cases: MIC by agar plate dilution method
Type in all cases: cell-based
C. freundii No. 7 = conditions: Citrobacter freundii; C. freundii No. 7; 10^6 CFU/ml; read-out: Minimum Inhibitory Concentration
Experimental: (§1) The minimum inhibitory concentrations (MIC: μg/ml) of the compounds of the present invention against various microorganisms were measured by an agar plate dilution method (inoculum size: 10^6 CFU/ml) by using Sensitivity Disk Agar (Nissui) in comparison with Cefotaxime and Ceftazidime as comparative compounds.
(§2) Minimum Inhibitory Concentration (μg/ml; 10^6 CFU/ml)

P. cepacia 23 = conditions: Burkholderia cepacia; P. cepacia 23; 10^6 CFU/ml; read-out: Minimum Inhibitory Concentration
Experimental: as §1, §2

P. aeruginosa AKR17 = conditions: Pseudomonas aeruginosa, AKR17, P. aeruginosa AKR17; 10^6 CFU/ml; read-out: Minimum Inhibitory Concentration
Experimental: as §1, §2

E. coli NIHJJC-2 = conditions: Escherichia coli, NIHJJC2, E. coli NIHJJC-2; 10^6 CFU/ml; read-out: Minimum Inhibitory Concentration
Experimental: as §1, §2

E. coli ML1410/Rte16 = conditions: Escherichia coli, ML1410/RTE16, read-out: Minimum Inhibitory Concentration, E. coli ML1410/Rte16; 10^6 CFU/ml
Experimental: as §1, §2

P. maltophilia IID 1275 = conditions: Stenotrophomonas maltophilia, IID1275; P. maltophilia IID 1275; 10^6 CFU/ml; read-out: Minimum Inhibitory Concentration
Experimental: as §1, §2

E. coli CSH2 = conditions: Escherichia coli, 10^6 CFU/ml, read-out: Minimum Inhibitory Concentration
Experimental: as §1, §2

A. calcoaceticus No. 14 = conditions: Acinetobacter calcoaceticus, NO.14, A. calcoaceticus No. 14; 10^6 CFU/ml; read-out: Minimum Inhibitory Concentration
Experimental: as §1, §2

E. coli C/Rms149 = conditions: Escherichia coli, read-out: Minimum Inhibitory Concentration, E. coli C/Rms149; 10^6 CFU/ml
Experimental: as §1, §2

P. aeruginosa AK109 = conditions: Pseudomonas aeruginosa, AK109, P. aeruginosa AK109; 10^6 CFU/ml; read-out: Minimum Inhibitory Concentration
Experimental: as §1, §2

E. cloaceae Nek 39 = conditions: E. cloaceae Nek 39; 10^6 CFU/ml; read-out: Minimum Inhibitory Concentration
Experimental: as §1, §2

P. mirabilis JY10 = conditions: Proteus mirabilis; P. mirabilis JY10; 10^6 CFU/ml; read-out: Minimum Inhibitory Concentration
Experimental: as §1, §2

S. marcescens No. 16-2 = conditions: Serratia marcescens, NO.162; S. marcescens No. 16-2; 10^6 CFU/ml; read-out: Minimum Inhibitory Concentration
Experimental: as §1, §2

K. pneumoniae No. 42 = conditions: Klebsiella pneumoniae; K. pneumoniae No. 42; 10^6 CFU/ml; read-out: Minimum Inhibitory Concentration
Experimental: as §1, §2

S. aureus JS-1 = conditions: Staphylococcus aureus, JS1; S. aureus JS-1; 10^6 CFU/ml; read-out: Minimum Inhibitory Concentration
Experimental: as §1, §2

P. vulgaris No. 33 = conditions: Proteus vulgaris
Experimental: as §1, §2

P. vulgaris OB1043 = conditions: Proteus vulgaris, OB1043, P. vulgaris OB1043; 10^6 CFU/ml; read-out: Minimum Inhibitory Concentration
Experimental: as §1, §2

S. aureus NIHJJC-1 = conditions: Staphylococcus aureus, NIHJJC1, S. aureus NIHJJC-1; 10^6 CFU/ml; read-out: Minimum Inhibitory Concentration
Experimental: as §1, §2

E. coli W3630/Rms212 = conditions: Escherichia coli, W3630/RMS212, read-out: Minimum Inhibitory Concentration, E. coli W3630/Rms212; 10^6 CFU/ml
Experimental: as §1, §2

E. coli W3630/Rms213 = conditions: Escherichia coli, W3630/RMS213, read-out: Minimum Inhibitory Concentration, E. coli W3630/Rms213; 10^6 CFU/ml
Experimental: as §1, §2

E. coli CSH = conditions: Escherichia coli, 10^6 CFU/ml, read-out: Minimum Inhibitory Concentration
Experimental: as §1, §2

[1] = NO.33, read-out: Minimum Inhibitory Concentration

Row | SMILES | MIC (C. freundii No. 7) [µg/mL] | MIC (P. cepacia 23) [µg/mL] | MIC (P. aeruginosa AKR17) [µg/mL] | MIC (E. coli NIHJJC-2) [µg/mL] | MIC (E. coli ML1410/Rte16) [µg/mL] | MIC (P. maltophilia IID 1275) [µg/mL] | MIC (E. coli CSH2) [µg/mL] | MIC (A. calcoaceticus No. 14) [µg/mL] | MIC (E. coli C/Rms149) [µg/mL] | MIC (P. aeruginosa AK109) [µg/mL] | MIC (E. cloaceae Nek 39) [µg/mL] | MIC (P. mirabilis JY10) [µg/mL] | MIC (S. marcescens No. 16-2) [µg/mL] | MIC (K. pneumoniae No. 42) [µg/mL] | MIC (S. aureus JS-1) [µg/mL] | MIC (P. vulgaris OB1043) [µg/mL] | MIC (S. aureus NIHJJC-1) [µg/mL] | MIC (E. coli W3630/Rms212) [µg/mL] | MIC (E. coli W3630/Rms213) [µg/mL] | MIC (E. coli CSH) [µg/mL] | also measured
1 | C[N+]1(CC2=C(C(=O)[O-])N3C(=O)C(NC(=O)C(=NOC4(C(=O)O)CC4)c4csc(N)n4)C3SC2)CCc2cc(O)c(O)cc2C1 (stereo not drawn) [Ex. 17-E, 7-[(Z)-2-(2-aminothiazol-4-yl)-2-(1-carboxy-1-cyclopropoxyimino)acetamido]-3-(6,7-dihydroxy-2-methyl-1,2,3,4-tetrahydro-2-isoquinolinium)methyl-3-cephem-4-carboxylate] | 1.56 (≈ 2.42 µM) | ≤ 0.05 | 0.1 (≈ 0.155 µM) | ≤ 0.05 | ≤ 0.05 | 1.56 (≈ 2.42 µM) | ≤ 0.05 | 0.1 (≈ 0.155 µM) | ≤ 0.05 | ≤ 0.05 | ≤ 0.05 | ≤ 0.05 | 0.39 (≈ 0.605 µM) | ≤ 0.05 | > 25 | ≤ 0.05 | 12.5 (≈ 19.4 µM) | ≤ 0.05 | ≤ 0.05 | ≤ 0.05 | MIC (P. vulgaris No. 33; [1]): ≤ 0.05 µg/mL
2 | C[N+]1(CC2=C(C(=O)[O-])N3C(=O)C(NC(=O)C(=NOC4(C(=O)O)CCCC4)c4csc(N)n4)C3SC2)CCc2cc(O)c(O)cc2C1 (stereo not drawn) [Ex. 18-G, 7-[(Z)-2-(2-aminothiazol-4-yl)-2-(1-carboxy-1 cyclopentyloxyimino)acetamido]-3-(6,7-dihydroxy-2-methyl-1,2,3,4-tetrahydro-2-isoquinolinium)methyl-3-cephem-4-carboxylate] | 0.78 (≈ 1.16 µM) | 0.2 (≈ 0.297 µM) | 0.78 (≈ 1.16 µM) | 0.39 (≈ 0.58 µM) | 0.2 (≈ 0.297 µM) | 100 (≈ 149 µM) | 0.78 (≈ 1.16 µM) | 3.12 (≈ 4.64 µM) | 0.78 (≈ 1.16 µM) | 0.2 (≈ 0.297 µM) | 0.1 (≈ 0.149 µM) | 6.25 (≈ 9.29 µM) | 12.5 (≈ 18.6 µM) | 1.56 (≈ 2.32 µM) | > 100 | 1.56 (≈ 2.32 µM) | 25 (≈ 37.2 µM) | 0.39 (≈ 0.58 µM) | 0.78 (≈ 1.16 µM) | 0.78 (≈ 1.16 µM) | MIC (P. vulgaris No. 33; P. vulgaris No. 33, 10^6 CFU/ml, read-out: Minimum Inhibitory Concentration): 6.25 µg/mL (≈ 9.29 µM)
3 | C[N+]1(CC2=C(C(=O)[O-])N3C(=O)C(NC(=O)C(=NOC4(C(=O)O)CCC4)c4csc(N)n4)C3SC2)CCc2cc(O)c(O)cc2C1 (stereo not drawn) [Ex. 19, 7-[(Z)-2-(2-aminothiazol-4-yl)-2-(1-carboxy-1-cyclobutoxyimiino)acetamide]-3-(6,7-dihydroxy-2-methyl-1,2,3,4-tetrahydro2-isoquinolinium)methyl-3-cephem-4-carboxylate] | 0.78 (≈ 1.18 µM) | 0.0125 (≈ 0.019 µM) | 0.1 (≈ 0.152 µM) | 0.05 (≈ 0.0759 µM) | 0.025 (≈ 0.038 µM) | 3.12 (≈ 4.74 µM) | 0.05 (≈ 0.0759 µM) | 0.2 (≈ 0.304 µM) | 0.025 (≈ 0.038 µM) | 0.025 (≈ 0.038 µM) | 0.1 (≈ 0.152 µM) | 0.1 (≈ 0.152 µM) | 0.39 (≈ 0.592 µM) | 0.05 (≈ 0.0759 µM) | 100 (≈ 152 µM) | 0.05 (≈ 0.0759 µM) | 25 (≈ 38 µM) | 0.025 (≈ 0.038 µM) | 0.025 (≈ 0.038 µM) | 0.05 (≈ 0.0759 µM) | MIC (P. vulgaris No. 33; [1]): 0.05 µg/mL (≈ 0.0759 µM)

Reference: patent publication US4742053A, “3-Isoquinoliniomethyl cephalosporin derivatives” (Banyu Pharmaceutical Co., Ltd., priority 1984, dated 1988)
